In US5071965A, “Novel TC-99M complexes” (Mallinckrodt Medical, Inc., priority 1989, dated 1991):

Assay: Biodistribution of Tc-99m complexes in guinea pigs (heart uptake, heart/blood)
Settings: 5 minutes, Tc-99m complex
Experimental: The procedures used for determining biodistribution are as follows.
Guinea Pigs--The guinea pigs are anesthetized and the technetium complex is injected into the jugular vein after a cutdown. The animals are sacrificed after 5 minutes and the organs removed and counted as with the rats.
For guinea pigs, significant heart uptake is determined if the percentage of technetium in the heart is greater than 0.5% and the heart/blood ratio is greater than 1.

Point of comparison: CCCOCC(CN=Cc1ccccc1O)(CN=Cc1ccccc1O)CN=Cc1ccccc1O (stereo not shown) [phenol, 2,2'-[[2-[[[(2-hydroxyphenyl)methylene]amino]methyl]-2-propoxymethyl-1,3-propanediyl]bis(nitrilomethylidyne)]bis-], “Guinea Pig Heart/Blood Ratio” value 18. Against it:
- Cc1ccc(O)c(C=NCC(C)(CN=Cc2cc(C)ccc2O)CN=Cc2cc(C)ccc2O)c1 (stereo not shown) [R5=H, R6=H, R7=CH3, R8=H, R3=H, R4=CH3] — the same, 18

Same assay, conditions: jugular vein injection, 5 minutes, Tc-99m complex

Point of comparison: CSc1ccc(C=NCC(C)(CN=Cc2ccc(SC)cc2O)CN=Cc2ccc(SC)cc2O)c(O)c1 (stereo not shown) [R5=H, R6=SCH3, R7=H, R8=H, R3=H, R4=CH3, 3-Methylthiophenol, 6,6'-[[2-[[[(4-methylthio-2-hydroxyphenyl)methylene]amino]methyl]-2-methyl-1,3-propanediyl]bis(nitrilomethylidyne)]bis-], “5 Minute Guinea Pig % HT Uptake” value 1.72%. Against it:
- CC(CN=Cc1cc(C(F)(F)F)ccc1O)(CN=Cc1cc(C(F)(F)F)ccc1O)CN=Cc1cc(C(F)(F)F)ccc1O (stereo not shown) [R5=H, R6=H, R7=CF3, R8=H, R3=H, R4=CH3] — lower, 0.51%
- CCc1cccc(C=NCC(C)(CN=Cc2cccc(CC)c2O)CN=Cc2cccc(CC)c2O)c1O (stereo not shown) [2-ethylphenol, 6,6'-[[2-[[[3-ethyl-2-hydroxyphenyl)methylene]amino]methyl]2-methyl-1,3-propanediyl]bis(nitrilomethylidyne)]bis-] — lower, 0.47%
- Oc1c(F)cc(F)cc1C=NCC(CN=Cc1cc(F)cc(F)c1O)(CN=Cc1cc(F)cc(F)c1O)COCc1ccccc1 (stereo not shown) [2,4-difluorophenol, 2,2'-[[2-[[[(3,5-difluoro-2-hydroxyphenyl)methylene]amino]methyl]-2-phenylmethoxymethyl-1,3-propanediyl]bis(nitrilomethylidyne)]bis-] — the same, 1.72%
- CC(C)COCC(CN=Cc1ccccc1O)(CN=Cc1ccccc1O)CN=Cc1ccccc1O (stereo not shown) [Phenol, 2,2'-[[2-[[[(2-hydroxyphenyl)methylene]amino]methyl]-2-(2-methylpropoxy)methyl-1,3-propandiyl]bis(nitrilomethylidyne)]-] — the same, 1.72%
- Oc1ccc(F)cc1C=NCC(CN=Cc1cc(F)ccc1O)(CN=Cc1cc(F)ccc1O)COCc1ccccc1 (stereo not shown) [4-fluorophenol, 2,2'-[[2-[[[(5-fluoro-2-hydroxyphenyl)methylene]amino]methyl]-2-phenylmethoxymethyl-1,3-propanediyl]bis(nitrilomethylidyne)]bis-] — lower, 1.14%
- CN(C)c1ccc(C=NCC(C)(CN=Cc2ccc(N(C)C)cc2O)CN=Cc2ccc(N(C)C)cc2O)c(O)c1 (stereo not shown) [3-Dimethylaminophenol, 6,6'-[[2-[[[(4-dimethylamino-2-hydroxy-phenyl)methylene]amino]methyl]-2-methyl-1,3-propanediyl]bis-(nitrilomethylidyne)]bis-] — lower, 0.72%
- phenol, 2,2'-[[2-[[[(2-hydroxyphenyl)methylene]amino]methyl]-2-(4-methoxy-4-methyl)pentyl-1,3-propanediyl]bis(nitrilomethylidyne)]bis- — lower, 1.61%
- Oc1ccccc1C=NCCN(CCN=Cc1ccccc1O)CCN=Cc1ccccc1O [R5=H, R6=H, R7=H, R8=H, R3=H, R4=--, tris(2-salicylideneiminoethyl)amine] — lower, 0.84%
- CCCOCC(CN=Cc1c(O)cc(OC)cc1OC)(CN=Cc1c(O)cc(OC)cc1OC)CN=Cc1c(O)cc(OC)cc1OC (stereo not shown) [3,5-dimethoxyphenol, 2,2'-[[2-[[[(4,6-dimethoxy-2-hydroxyphenyl)methylene]amino]methyl]-2-propoxymethyl-1,3-propanediyl]bis(nitrilomethylidyne)]bis-] — lower, 1.21%
- C=CCOCC(CN=Cc1ccccc1O)(CN=Cc1ccccc1O)CN=Cc1ccccc1O (stereo not shown) [phenol, 2,2'-[[2-[[[(2-hydroxyphenyl)methylene]amino]methyl]-2-propenyloxymethyl-1,3-propanediyl]bis(nitrilomethylidyne)]bis-] — lower, 1.09%
- COc1c(C)cc(O)c(C=NCC(C)(CN=Cc2c(O)cc(C)c(OC)c2C)CN=Cc2c(O)cc(C)c(OC)c2C)c1C (stereo not shown) [3,5-dimethyl-4-methoxyphenol, 2,2'-[[2-[[[(4,6-dimethyl-5-methoxy-2-hydroxyphenyl)methylene]amino]methyl]-2-methyl-1,3-propanediyl]bis(nitrilomethylidyne)]bis-] — lower, 1.07%
- COc1cc(COCC(CN=Cc2ccccc2O)(CN=Cc2ccccc2O)CN=Cc2ccccc2O)cc(OC)c1OC (stereo not shown) [phenol, 2,2'-[[2-[[[(2-hydroxyphenyl)methylene]amino]methyl]-2-(3,4,5-trimethoxyphenyl)methoxymethyl-1,3-propanediyl]bis(nitrilomethylidyne)]bis-] — lower, 1.00%
- CCC(=NCC(C)(CN=C(CC)c1ccccc1O)CN=C(CC)c1ccccc1O)c1ccccc1O (stereo not shown) [phenol, 2,2'-[[2-[[[(2-hydroxyphenyl)propylene]amino]methyl]-2-methyl-1,3-propanediyl]bis(nitrilopropylidyne)]bis-] — lower, 0.76%
- Cc1ccc(O)c(C=NCC(C)(CN=Cc2cc(C)ccc2O)CN=Cc2cc(C)ccc2O)c1 (stereo not shown) [R5=H, R6=H, R7=CH3, R8=H, R3=H, R4=CH3] — higher, 1.82%
- CCCCCCCC(=O)OCC(CN=Cc1ccccc1O)(CN=Cc1ccccc1O)CN=Cc1ccccc1O (stereo not shown) [phenol, 2,2'-[[2-[[[(2-hydroxypheny)methylene]amino]methyl]-2-octanoyloxymethyl-1,3-propanediyl]bis(nitrilomethylidyne)]bis-] — lower, 0.88%
- CCCOCC(CN=Cc1ccccc1O)(CN=Cc1ccccc1O)CN=Cc1ccccc1O (stereo not shown) [phenol, 2,2'-[[2-[[[(2-hydroxyphenyl)methylene]amino]methyl]-2-propoxymethyl-1,3-propanediyl]bis(nitrilomethylidyne)]bis-] — lower, 1.48%
- COCC(CN=Cc1c(O)cc(OC)c(OC)c1OC)(CN=Cc1c(O)cc(OC)c(OC)c1OC)CN=Cc1c(O)cc(OC)c(OC)c1OC (stereo not shown) [3,4,5-trimethoxyphenol, 2,2'-[[2-[[[(4,5,6-trimethoxy-2-hydroxyphenyl)methylene]amino]methyl]-2-methoxymethyl-1,3-propanediyl]bis(nitrilomethylidyne)]bis-] — lower, 0.86%
- COCC(CN=Cc1ccccc1O)(CN=Cc1ccccc1O)CN=Cc1ccccc1O (stereo not shown) [phenol, 2,2'-[[2-[[[(2-hydroxyphenyl)methylene]amino]methyl]-2-methoxymethyl-1,3-propanediyl]bis(nitrilomethylidyne)]bis-] — lower, 1.44%
- COc1cc(O)c(C=NCC(C)(CN=Cc2c(O)cc(OC)c(C)c2OC)CN=Cc2c(O)cc(OC)c(C)c2OC)c(OC)c1C (stereo not shown) [3,5-dimethoxy-4-methyl-phenol, 2,2'-[[2-[[[(4,6-dimethoxy-5-methyl-2-hydroxyphenyl)methylene]amino]methyl]-2-methyl-1,3-propanediyl]bis(nitrilomethylidyne)]bis-] — lower, 0.84%
- CCCCCCOCC(CN=Cc1ccccc1O)(CN=Cc1ccccc1O)CN=Cc1ccccc1O (stereo not shown) [phenol, 2,2,'-[[2-[[[(2-hydroxyphenyl)methylene]amino]methyl]-2-hexyloxymethyl-1,3-propanediyl]bis(nitrilomethylidyne)]bis-] — lower, 1.19%
- COc1ccc(COCC(CN=Cc2ccccc2O)(CN=Cc2ccccc2O)CN=Cc2ccccc2O)cc1 (stereo not shown) [phenol, 2,2'-[[2-[[[2-hydroxyphenyl)methylene]amino]methyl]-2-(4-methoxyphenyl)methoxymethyl-1,3-propanediyl]bis(nitrilomethylidyne)]bis-] — lower, 1.08%
- CC(CN=Cc1cc(F)ccc1O)(CN=Cc1cc(F)ccc1O)CN=Cc1cc(F)ccc1O (stereo not shown) [R5=H, R6=H, R7=F, R8=H, R3=H, R4=CH3] — lower, 1.30%
- COc1cc(O)c(C=NCC(CN=Cc2c(O)cc(OC)c(OC)c2OC)(CN=Cc2c(O)cc(OC)c(OC)c2OC)COCc2ccccc2)c(OC)c1OC (stereo not shown) [3,4,5-trimethoxyphenol, 2,2'-[[2-[[[(4,5,6-trimethoxy-2-hydroxyphenyl)methylene]amino]methyl]-2-phenylmethoxymethyl-1,3-propanediyl]bis(nitrilomethylidyne)]bis-] — lower, 0.60%
- Oc1ccccc1C=NCC(CN=Cc1ccccc1O)CN=Cc1ccccc1O (stereo not shown) [R5=H, R6=H, R7=H, R8=H, R3=H, R4=H, phenol, 2,2'-[[2-[[[ (2-hydroxyphenyl)methylene]amino]methyl]-1,3-propanediyl]bis(nitrilomethylidyne)]bis-] — lower, 1.29%
- Cc1ccc(C=NCC(C)(CN=Cc2ccc(C)cc2O)CN=Cc2ccc(C)cc2O)c(O)c1 (stereo not shown) [R5=H, R6=CH3, R7=H, R8=H, R3=H, R4=CH3, 3-Methylphenol, 6,6'-[[2-[[[(4-methyl-2-hydroxyphenyl)methylene]amino]methyl]-2-methyl-1,3-propanediyl]bis(nitrilomethylidyne)]bis-] — lower, 1.51%
- CCOc1cccc(C=NCC(C)(CN=Cc2cccc(OCC)c2O)CN=Cc2cccc(OCC)c2O)c1O (stereo not shown) [2-ethoxyphenol, 6,6'-[[2-[[[(3-ethoxy-2-hydroxyphenyl)methylene]amino]methyl]-2-methyl-1,3-propanediyl]bis(nitrilomethylidyne)]bis-] — lower, 0.50%
- CC(C)OCC(CN=Cc1ccccc1O)(CN=Cc1ccccc1O)CN=Cc1ccccc1O (stereo not shown) [Phenol, 2,2'-[[2[[[(2-hydroxyphenyl)methylene]amino]methyl]-2-(1-methylethoxy)methyl-1,3-propanediyl]bis(nitrilomethylidyne)]bis-] — lower, 0.57%
- COCCCCC(CN=Cc1ccccc1O)(CN=Cc1ccccc1O)CN=Cc1ccccc1O (stereo not shown) — lower, 1.66%
- CCCOCC(CN=Cc1ccc(OC)cc1O)(CN=Cc1ccc(OC)cc1O)CN=Cc1ccc(OC)cc1O (stereo not shown) — lower, 0.87%
- Oc1ccccc1C=NCC(CN=Cc1ccccc1O)(CN=Cc1ccccc1O)COCc1ccccc1 (stereo not shown) [phenol, 2,2'-[[2-[[[(2-hydroxyphenyl)methylene]amino]methyl]-2-phenylmethoxymethyl-1,3-propanediyl]bis(nitrilomethylidyne)]bis-] — lower, 1.60%
- CSc1ccc(O)c(C=NCC(C)(CN=Cc2cc(SC)ccc2O)CN=Cc2cc(SC)ccc2O)c1 (stereo not shown) [R5=H, R6=H, R7=SCH3, R8=H, R3=H, R4=CH3, 4-methylthiophenol, 2,2'-[[2-[[[(5-methylthio-2-hydroxyphenyl)methylene]amino-]methyl]-2-methyl-1,3-propanediyl]bis(nitrilomethylidyne)]bis-] — lower, 1.23%
